We go through eight molecules from publication PMC12475274, “Harnessing indole scaffolds to identify small-molecule IRE1α inhibitors modulating XBP1 mRNA splicing” (Nature Communications, 2025).

Values joined by “and” are separate entries in the source; they are usually repeats but may differ in a detail not shown here. Equal values may be shown once. Read-outs that look alike come from different tables or passages of the source.

What is called IC50 is the concentration that inhibits the measured activity by half. The term inhibition denotes the change of the read-out against control, counted positive when it falls.

In one test the target is T1, IRE1α (Homo sapiens, UniProt O75460).
T1 construct: Human IRE1α kinase and RNase domain (residues 547–977) was subcloned into pLIB plasmid; His tag (with TEV cleavage site) (N, cleaved yes); made in house; host or cells: Sf9 insect cells, baculovirus (Bac-to-Bac)
T1 sequence (O75460 547-977): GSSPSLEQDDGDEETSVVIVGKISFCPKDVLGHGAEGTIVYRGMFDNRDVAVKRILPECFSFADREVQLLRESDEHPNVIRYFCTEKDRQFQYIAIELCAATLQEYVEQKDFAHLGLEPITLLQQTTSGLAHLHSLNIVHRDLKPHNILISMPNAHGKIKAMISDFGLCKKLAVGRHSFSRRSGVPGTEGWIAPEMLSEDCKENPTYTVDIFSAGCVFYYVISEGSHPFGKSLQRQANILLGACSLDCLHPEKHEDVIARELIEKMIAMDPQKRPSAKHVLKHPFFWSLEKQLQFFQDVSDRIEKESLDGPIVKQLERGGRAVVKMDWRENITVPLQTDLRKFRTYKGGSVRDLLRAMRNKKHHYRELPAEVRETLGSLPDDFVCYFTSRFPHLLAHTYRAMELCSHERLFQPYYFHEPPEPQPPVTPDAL
As to the kind of experiment: Differential scanning fluorimetry (DSF), IRE1α. To be noted: for IRE1 ∆Tm(°C): Supplementary Fig. 3c, replicate values. The test is classed as binding. The procedure: (§1) The DSF assay was performed in PBS buffer containing 2 mM DTT, in a total reaction volume of 20 µl with indicated compounds (final 1% DMSO) and the final concentration of 1 µM IRE1α protein and 5× SYPRO Orange fluorescent dye (5000× in DMSO, Sigma S5692). The melting curve was measured at a temperature range from 25 °C to 95 °C and in increments of 1 °C for 30 s using a Bio-Rad CFX96 Real-Time PCR detection system with the FRET scan mode. The melting temperature (Tm) was obtained by fitting the melting curve to Boltzmann sigmoidal in GraphPad Prism and the thermal shift (∆Tm) was calculated by using the equation: ∆Tm = Tm(compound) -Tm(DMSO).

Test [1] has as its target T2, dephosphorylated IRE1α (547–977) (Homo sapiens, UniProt O75460).
T2 construct: Human IRE1α kinase and RNase domain (residues 547–977) was subcloned into pLIB plasmid; His tag (with TEV cleavage site) (N, cleaved yes); made in house; host or cells: Sf9 insect cells, baculovirus (Bac-to-Bac)
The test is described as follows: FRET-based IRE1α RNase activity assay, dephosphorylated IRE1α. The test is classed as biochemical. The following applies: for IC50: FRET assay. The method, boiled down:
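Inhibition came from the linear-phase cleavage rate of 100 nM XBP1-sequence FAM/BHQ1 RNA, monitored at 485/535 nm over one hour and fitted to IC50. Enzyme: 40 nM unphosphorylated IRE1α kinase-RNase domain (547–977), exposed to compound for 30 min at room temperature before substrate, in HEPES pH 7.5 buffer.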

The target of test [2] is T3, phosphorylated IRE1α (p-IRE1α) (Homo sapiens, UniProt O75460).
T3 construct: Human IRE1α kinase and RNase domain (residues 547–977) was subcloned into pLIB plasmid; His tag (with TEV cleavage site) (N, cleaved yes); made in house; host or cells: Sf9 insect cells, baculovirus (Bac-to-Bac)
T3 sequence (O75460 547-977): as above
The test is described as follows: FRET-based IRE1α RNase activity assay, phosphorylated IRE1α. The class given is biochemical. The method, boiled down: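 Cleavage of a dual-labeled XBP1 RNA (200 nM) was followed kinetically over 1 h at room temperature at 485/535 nm, with initial slopes giving percent inhibition and IC50. Enzyme was 4 nM phosphorylated human IRE1α 547–977 from insect cells, incubated with compound for 30 min before substrate; buffer 20 mM HEPES pH 7.5, KOAc, MgOAc2, DTT, Triton X-100.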

For the next test, the target named is T4, p-IRE1α (Homo sapiens, UniProt O75460).
T4 construct: Human IRE1α kinase and RNase domain (residues 547–977) was subcloned into pLIB plasmid; His tag (with TEV cleavage site) (N, cleaved yes); made in house; host or cells: Sf9 insect cells, baculovirus (Bac-to-Bac)
T4 sequence (O75460 547-977): as above
As to the kind of experiment: Differential scanning fluorimetry (DSF), p-IRE1α. The following applies: individual replicate values. The test is classed as binding. The procedure: as §1
A general note: DSF heats the sample and reads unfolding from a dye or from intrinsic fluorescence.

Setting [3] is: RNase activity, mean (± SEM), read-out: IRE1α IC50.
[4] abbreviates: source data, unit from Fig. 3 / sheet Fig. 2b, read-out: IRE1a IC50, individual replicates (n1-n4).
Setting [5] is: FRET assay, RNase activity, mean (± SEM), read-out: p-IRE1α IC50.
Setting [6] is: FRET assay, source data, unit from Fig. 3, read-out: p-IRE1a IC50, individual replicates (n1-n4).
Setting [7] is: p-IRE1a, individual replicates (n1-n3), Supplementary Fig. 2b, 2c, read-out: IC50.
[8] abbreviates: FRET assay at 50 μM, source data, 50 µM.

T2 sequence (O75460 547-977): as above

Turning to `COc1ccc2c(c1)c(CCC(=O)O)c(C)n2C(=O)c1ccc2ccccc2c1` [IA034], the “IRE1 ∆Tm(°C)” value on IRE1α (compound 6.25 μM) is 0.1 °C and -0.04 °C; on IRE1α (compound 12.5 μM), 0.02 °C and -0.1 °C; at IRE1α (compound 25 μM) it was 0.25 °C and 0 °C; on IRE1α (compound 50 μM), -0.02 °C and 0 °C.
With `COc1ccc2c(c1)c(CCC(=O)O)c(C)n2C(=O)c1cccs1` [IA03], the 50% inhibitory concentration (IC50) in test [1] (setting [3]) is 100 nM; in test [1] (setting [4]), 73.3 nM and 110 nM and 118 nM; in test [2] (setting [5]) it was 120 nM; in test [2] (setting [6]), 176 nM and 68 nM and 105 nM; in test [2] (setting [7]) it was 176 nM and 68 nM and 105 nM. The “stabilization of IRE1α in DSF” value at IRE1α is reported as “concentration-dependently stabilized”. The “IRE1 ∆Tm(°C)” value on IRE1α (compound 6.25 μM) was 0.75 °C and 0.95 °C; at IRE1α (compound 12.5 μM) it was 1 °C and 0.99 °C; at IRE1α (compound 25 μM) it was 1.96 °C and 1.82 °C; at IRE1α (compound 50 μM) it was 2.84 °C and 2.57 °C. The “p-IRE1a ∆Tm(°C)” value was 0.24 °C and 0.45 °C on p-IRE1α (compound 6.25 μM); 0.39 °C and 0.62 °C on p-IRE1α (compound 12.5 μM); 1.04 °C and 1.05 °C on p-IRE1α (compound 25 μM); 1.49 °C and 1.54 °C on p-IRE1α (compound 50 μM).
With `COc1ccc2c(c1)c(CCC(=O)O)c(C)n2C(=O)c1cccc(C#N)c1` [IA30], the IC50 in test [1] (setting [3]) is 90 nM and 85 nM; in test [1] (setting [4]) it was 63.5 nM and 100 nM and 91.3 nM; in test [2] (setting [5]), 40 nM; in test [2] (setting [6]), 57 nM and 41 nM and 21 nM; in test [2] (setting [7]), 56.8 nM and 41.3 nM and 21.4 nM. The “stabilization of IRE1α in DSF” value at IRE1α is given as “concentration-dependently stabilized”. Further, the “IRE1 ∆Tm(°C)” value was 0.71 °C and 0.59 °C at IRE1α (compound 6.25 μM); 1.19 °C and 1.23 °C on IRE1α (compound 12.5 μM); 1.84 °C and 1.88 °C at IRE1α (compound 25 μM); 2.92 °C and 2.84 °C on IRE1α (compound 50 μM). In addition, the “p-IRE1a ∆Tm(°C)” value at p-IRE1α (compound 6.25 μM) was 0.49 °C and 0.43 °C; at p-IRE1α (compound 12.5 μM), 0.57 °C and 0.74 °C; on p-IRE1α (compound 25 μM), 1.03 °C and 1.24 °C; on p-IRE1α (compound 50 μM) it was 1.59 °C and 1.56 °C.
On to `COc1ccc2c(c1)c(CCC(=O)O)c(C)n2C(=O)C1CC1` [IA84], for which the IC50 in test [1] (setting [3]) is 830 nM; in test [1] (setting [4]), 703 nM and 1250 nM and 531 nM; in test [2] (setting [5]), 1740 nM; in test [2] (setting [6]), 1510 nM and 2540 nM and 1170 nM.
For `COc1ccc2c(c1)c(CCC(=O)O)c(C)n2C(=O)c1ccc(F)cc1` [IA66], the half-inhibitory concentration (IC50) in test [1] (setting [3]) was 140 nM; in test [1] (setting [4]), 213 nM and 125 nM and 82.7 nM; in test [2] (setting [5]), 200 nM; in test [2] (setting [6]) it was 124 nM and 115 nM and 353 nM.
In the case of `COc1ccc2c(c1)c(CC(=O)O)c(C)n2C(=O)c1ccc(N(C)C)cc1` [idm06], the “Inhibiton% @ 50 Μm” value in test [1] (IRE1a, @ 50 Μm, individual replicates (n1-n3), Supplementary Fig. 2a) was 31.43% and 32.06% and 32.96% and 41.19% and 38.68%; in test [2] (p-IRE1a, @ 50 Μm, individual replicates (n1-n3), Supplementary Fig. 2a), 36.04% and 36.79% and 33.53% and 36.40% and 23.29% and 29.46%. Further, the “Inhibiton% @ 50 Μm, mean” value in test [1] (IRE1a, @ 50 Μm, mean, Supplementary Fig. 2a) is on record as 35.27%; in test [2] (p-IRE1a, @ 50 Μm, mean, Supplementary Fig. 2a), 32.58%.
On to `Cc1c(CCC(=O)O)c2cc(-c3ccc(C(N)=O)cc3)ccc2n1C(=O)c1ccccc1` [IA152], for which the IC50 in test [1] (setting [3]) is 12100 nM; in test [1] (setting [4]), 10800 nM and 12500 nM and 13000 nM; in test [2] (setting [5]) it was 43100 nM; in test [2] (setting [6]) it was 46900 nM and 49800 nM and 32500 nM.
Turning to `COc1ccc2c(c1)c(CCCC(=O)O)c(C)n2C(=O)c1ccc(Cl)cc1` [cms02], the inhibition at 50 µM in test [1] (FRET assay at 50 μM, mean (± SEM), read-out: IRE1α inhibition%) worked out at 40.3%; in test [2] (FRET assay at 50 μM, mean (± SEM), read-out: p-IRE1α inhibition%) it was 42.5%. Further, the “IRE1a inhibition(%), individual measurements” value in test [1] (setting [8]) was 64.1986% and 50.8974% and 61.5831% and 7.967% and 17.0403%. The “p-IRE1a Inhibiton%, individual measurements” value in test [2] (setting [8]) is 54.5805% and 55.2276% and 56.4075% and 61.6984% and 12.177% and 15.0468%.
